Viability data for 1 molecule are collected here from patent US20260226101A1, “PEPTIDE WITH ANTI-INFLAMMATORY AND ANTI-MICROBIAL ACTIVITY” (priority 2023, published 2026).

The data set is described as follows: in vitro. It is filed as cell-based, murine. The note with it: mouse. The procedure: Cell viability of synthetic peptides on the growth of RAW264.7 cells was measured using the methyl thiazolyl tetrazolium (MTT) assay after 48 h. Briefly, exponentially growing macrophages RAW264.7 cells were mechanically scraped, plated at a density of 7×10^3 cells in 100 μl were seeded into each well of a 96-well plate then incubated for 12 h at 37° C. under 5% CO2, and then the cells are treated with test peptides: IS 111 ([…]) or dexamethasone ([…]) cells were incubated at 37° C. in the presence of 5% CO2 for 42 h. After incubation, the morphology of cells was examined under a microscope. Following incubation, MTT was added to the cells (20 μL at 5 mg/mL MTT dissolved in 1×PBS) and incubated for 4 hours in the presence of 5% CO2 at 37° C. Formazan crystals were dissolved by the addition of 100 μL of 100% DMSO per well. Plates were then gently swirled for 5 min at room temperature to dissolve the precipitate. Absorbance was monitored at 575 nm using a microplate reader. Maximum cytotoxicity (100%) was determined by cells incubated with 1% Triton X-100; PBS was used as a negative control. Cells without treatment were considered as control. The average absorbance for each sample group was used to evaluate cell viability.
Optical density (O.D.) was calculated as the difference between the absorbance at the reference wavelength and that at the test wavelength. The relative cell viability was determined by the amount of MTT converted to the insoluble formazan salt. The data were expressed as the mean percentage of viable cells when compared with untreated cells (control). The half maximal growth inhibitory concentration (IC50) value was calculated from the line equation of the dose-dependent curve of each compound. The results were compared with the cytotoxic activity of dexamethasone, a known anti-inflammatory drug. […] Percentages of cell viability and LC50 of cells were calculated: Percent cell viability was calculated as (O.D. of drug-treated sample/control O.D.)×100. The data were expressed as percent cell viability compared with control (dimethyl sulfoxide/NS). The experiment was carried out in four samples of each concentration.
The percentages of cell viability and LC50 of cells were calculated by using the formula below.
Where Absorbance control is the DMSO 0.1%-treated cell absorbance, and Absorbance sample is the test sample-treated cell absorbance. LC50 values were derived from dose-response curves, and data were expressed as the mean of three independent experiments. Statistical analyses involved Student's t-test and one-way ANOVA.
The test peptide IS 111 cytotoxic effects on RAW 264.7 mouse […] were determined by MTT assay. […] Cell viability was measured by MTT assay based on the conversion of yellow tetrazolium salt to form a purple formazan product. The viability of the RAW 264.7 cells can be seen on table 21.

For orientation: viability means a read-out of living cells in per cent, often relative to untreated cells. With `C[C@@H]1C[C@H]2[C@@H]3CCC4=CC(=O)C=C[C@]4(C)[C@@]3(F)[C@@H](O)C[C@]2(C)[C@@]1(O)C(=O)CO` [Dexamethasone, dexamethasone, reference compound], the viability at 48 h, 7.8125 µg/mL turned out to be 102%; the viability at 48 h, 15.625 µg/mL came to 90%; the viability at 48 h, 31.25 µg/mL was 82.8%; the viability at 48 h, 62.5 µg/mL was determined as 91.4%. The viability at 48 h, 125 µg/mL was found to be 96%; the viability at 48 h, 250 µg/mL turned out to be 90.8%; the viability at 48 h, 500 µg/mL is 84.6%.
